This is an account of results in patent publication US7390910B2, “Compounds for treating tumors” (priority 2003, dated 2008).

Marks after values point to notes of the source that are not given here. Where a SMILES comes first, the peptide text is derived from it. [ ]: non-standard residue; d: D form. The star is where a group is joined. NMePhe(β,β-Me2) = CN[C@H](C(=O)O)C(C)(C)c1ccccc1; Tle = CC(C)(C)[C@H](N)C(=O)O; NMeV = CN[C@H](C(=O)O)C(C)C; NHBn = c1ccc(CN*)cc1 Where only a bound is given, the exact number is not on record here.

Test [1] deals with bovine microtubule-associated protein (MAP)-rich tubulin. In kind it is biochemical. The method, boiled down: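 MAP-rich bovine tubulin at 1.5 mg/ml final was dissolved in cold PEM buffer (80 mM Na-PIPES pH 6.9, 1 mM MgCl2, 1 mM EGTA) with 1 mM GTP, then centrifuged at 12,000×g for 10 min at 4° C. Aliquots of 100 μl were added quickly to a low-volume 96-well plate holding duplicate 10 μl compound samples. Absorbance at 340 nm was read each minute for 60 min at 24° C.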

For a further test, the system named is Colo205. Put plainly: Cell survival assay (SRB), Colo205. In kind it is cell-based. Conditions: Homo sapiens, COLO 205, 72 h, Colo205 cells, 3 days. On the procedure: (§1) Cell Survival Assay: Standard Pharmacological Test Procedure. […] Compounds are incubated with cells for 3 days.
Another test concerns KBV1. The experiment in a line: cells. In kind it is cell-based. As to conditions: for IC50: 3 days, SRB; for inhibition at 3 µM: KB-V1, 3000 nM. How it is done:
as §1

For the next test, the system named is KB85. Put plainly: cells. In kind it is cell-based. As to conditions: for IC50: 3 days, SRB. How it is done: as §1
The subject of another test is KB cells. The experiment in a line: cells. The class given is cell-based. As to conditions: for IC50: 3 days, SRB. On the procedure: as §1

The IC50 is the point on the concentration scale where inhibition reaches its midpoint. The low end stands for higher potency, the high end for lower potency. Take `CN[C@H](C(=O)N[C@H](C(=O)N(C)[C@H](/C=C(\C)C=O)C(C)C)C(C)(C)C)C(C)(C)c1ccc([S+](C)C)cc1.O=C(O)C(F)(F)F` [Example 83, 4-(dimethylsulfonio)-N,β,β-trimethyl-L-phenylalanyl-N^1-[(1S,2E)-1-isopropyl-3-methyl-4-oxo-2-butenyl]-N^1,3-dimethyl-L-valinamide trifluoroacetic acid]: the “Tubulin Polym. % inhibition at 0.3 uM” value in test [1] was 0%. Besides, the IC50 with Colo205 is 46 nM; with KBV1 (trifluoroacetic acid), over 3000 nM; in the test on KBV1 (Homo sapiens, KB-V1, 72 h), 2400 nM.

On to `CCOC(=O)/C(C)=C/[C@H](C(C)C)N(C)C(=O)[C@@H](NC(=O)C(SC)C(C)(C)c1ccccc1)C(C)(C)C` (stereo partly drawn) [Example 101, Ethyl (E,4S)-4-[((2S)-3,3-dimethyl-2-{[3-methyl-2-methylsulfanyl-3-phenylbutanoyl]amino}butanoyl)(methyl)amino]-2,5-dimethyl-2-hexenoate], for which the IC50 was over 1000 nM with Colo205; 1820 nM with KB85 (72 h); 4580 nM in the test with KBV1 (Homo sapiens, KB-V1, 72 h); 1100 nM in the test on KB cells (Homo sapiens, KB, 72 h).

In the case of `CCOC(=O)/C(C)=C/[C@H](C(C)C)N(C)C(=O)[C@@H](NC(=O)C(CC)C(C)(C)c1ccccc1)C(C)(C)C` (stereo partly drawn) [Example 99, Ethyl (E,4S)-4-[((2S)-3,3-dimethyl-2-{[3-methyl-2-ethyl-3-phenylbutanoyl]amino}butanoyl)(methyl)amino]-2,5-dimethyl-2-hexenoate], the IC50 in the test with Colo205 is over 1000 nM; with KB85 (72 h) it was 3640 nM; in the test with KB cells (Homo sapiens, KB, 72 h) it was 3480 nM. Further, in the test on KBV1, the “KBV1 % inhibition @6000” value amounted to 16%@6000.

One may read the inhibition as the percentage by which the read-out fell short of the control. Lower therefore signals a weak effect. As for `CCOC(=O)/C(C)=C/[C@H](C(C)C)N(C)C(=O)[C@@H](NC(=O)C(Cc1ccccc1)C(C)(C)c1ccccc1)C(C)(C)C` (stereo partly drawn) [Example 95, Ethyl (E,4S)-4-[((2S)-3,3-dimethyl-2-{[3-methyl-2-(benzyl)-3-phenylbutanoyl]amino}butanoyl)(methyl)amino]-2,5-dimethyl-2-hexenoate], the IC50 in the test on Colo205 is over 1000 nM; with KB85 (72 h), 756 nM; in the test with KB cells (Homo sapiens, KB, 72 h), 575 nM. The compound further showed an inhibition at 3 µM in the test with KBV1 (Homo sapiens) of 15%.

For the compound `C=CCC(C(=O)N[C@H](C(=O)N(C)[C@H](/C=C(\C)C(=O)OCC)C(C)C)C(C)(C)C)C(C)(C)c1ccccc1` (stereo partly drawn) [Example 97, Ethyl (E,4S)-4-[((2S)-3,3-dimethyl-2-{[3-methyl-2-allyl-3-phenylbutanoyl]amino}butanoyl)(methyl)amino]-2,5-dimethyl-2-hexenoate], the IC50 in the test with Colo205 is over 1000 nM; in the test on KB85 (72 h), 3320 nM; in the test with KB cells (Homo sapiens, KB, 72 h), 1910 nM. For the same compound, in the test on KBV1, the “KBV1 % inhibition @6000” value came out at 17%@6000.

As for `CN[C@H](C(=O)N[C@H](C(=O)N(C)[C@H](/C=C(\C)[C@@H](O)c1ccccc1)C(C)C)C(C)(C)C)C(C)(C)c1ccccc1` [Example 75, N,β,β-trimethyl-L-phenylalanyl-N-1-[(1S,2E,4R)-4-hydroxy-1-isopropyl-3-methyl-4-phenylbut-2-enyl}-N-1,3-dimethyl-L-valinamide], the “Tubulin Polym. % inhibition at 0.5 uM” value in test [1] is on record as 83*** %. Further, the IC50 is 186 nM in the test on KB85, 632 nM with KBV1 and 124 nM with KB cells.

Turning to `CN[C@@H](C(=O)N[C@H](C(=O)N(C)[C@H](/C=C(\C)C(=O)N1CCN(Cc2ccccc2)CC1)C(C)C)C(C)(C)C)C(C)(C)c1ccc(C)c(C)c1` [Example 13, N,β,β,3,4-Pentamethyl-D-phenylalanyl-N^1-[(1S,2E)-4-(4-benzylpiperazin-1-yl)-1-isopropyl-3-methyl-4-oxobut-2-enyl]-N^1,3-dimethyl-L-valinamide], the “Tubulin Polym. % inhibition at 0.3 uM” value in test [1] was found to be 11%. Besides, the IC50 with KB85 (72 h) is 352 nM; in the test with KBV1 (Homo sapiens, KB-V1, 72 h), 1770 nM; with KB cells (Homo sapiens, KB, 72 h), 172 nM.

`CN[C@H](C(=O)N[C@H](C(=O)N(C)[C@H](C(=O)N1CCC[C@H]1C(=O)N1CCC[C@H]1C(=O)NCc1ccccc1)C(C)C)C(C)(C)C)C(C)(C)c1ccccc1` [Example 34, N,β,β-trimethyl-L-phenylalanyl-3-methyl-L-valyl-N-methyl-L-valyl-L-prolyl-N-benzyl-L-prolinamide] (H-[NMePhe(β,β-Me2)][Tle][NMeV]PP-NHBn): in test [1], the “Tubulin Polym. % inhibition at 0.3 uM” value was determined as 64%. For the same compound, the IC50 was determined as 4.2 nM with KB85 (72 h); 1950 nM with KBV1 (Homo sapiens, KB-V1, 72 h); 0.25 nM in the test with KB cells (Homo sapiens, KB, 72 h). Moreover, in the test with KBV1 (Homo sapiens), the inhibition at 3 µM stood at 5%.

Take `CN[C@H](C(=O)N[C@H](C(=O)N(C)[C@H](/C=C(\C)C(=O)N1CCN(Cc2ccccc2)CC1)C(C)C)C(C)(C)C)C(C)(C)c1ccc(C)c(C)c1` [Example 12, N,β,β,3,4-Pentamethyl-L-phenylalanyl-N^1-[(1S,2E)-4-(4-benzylpiperazin-1-yl)-1-isopropyl-3-methyl-4-oxobut-2-enyl]-N^1,3-dimethyl-L-valinamide]: the “Tubulin Polym. % inhibition at 0.3 uM” value in test [1] worked out at 51%. Moreover, the IC50 amounted to 65 nM in the test with KB85 (72 h); 1330 nM in the test with KBV1 (Homo sapiens, KB-V1, 72 h); 48 nM in the test with KB cells (Homo sapiens, KB, 72 h).

Take `CN[C@H](C(=O)N[C@H](C(=O)N(C)[C@H](/C=C(\C)C(C)O)C(C)C)C(C)(C)C)C(C)(C)c1ccccc1` (stereo partly drawn) [Example 78, N,β,β-trimethyl-L-phenylalanyl-N-1-[(1S,2E)-4-hydroxy-1-isopropyl-3-methylpent-2-enyl]-N-1,3-dimethyl-L-valinamide]: in test [1], the “Tubulin Polym. % inhibition at 0.3 uM” value is reported as 75%. Also, the IC50 with KB85 amounted to 172 nM; in the test with KBV1 it was 1460 nM; in the test with KB cells, 63 nM.

In the case of `CNC(C(=O)NC(C(=O)N(C)C(C=C(C)C=C(C)C(=O)O)C(C)C)C(C)(C)C)C(C)(C)c1ccccc1` (stereo not drawn) [Example 79, 6-{[3,3-Dimethyl-2-(3-methyl-2-methylamino-3-phenyl-butyrylamino)-butyryl]-methyl-amino}-2,4,7-trimethyl-octa-2,4-dienoic acid], the “Tubulin Polym. % inhibition at 0.5 uM” value in test [1] is reported as 90*** %. For the same compound, the IC50 came to 53 nM in the test on KB85 (72 h); 1580 nM with KBV1 (Homo sapiens, KB-V1, 72 h); 27 nM in the test with KB cells (Homo sapiens, KB, 72 h).

With `CN[C@H](C(=O)N[C@H](C(=O)N(C)[C@H](/C=C(\C)C(=O)N1CCCC[C@H]1C(=O)OC)C(C)C)C(C)(C)C)C(C)(C)c1ccccc1` [Example 49, N,β,β-trimethyl-L-phenylalanyl-N^1-{(1S,2E)-1-isopropyl-4-[(2S)-2-(methoxycarbonyl)piperidin-1-yl]-3-methyl-4-oxobut-2-enyl}-N^1,3-dimethyl-L-valinamide], the “Tubulin Polym. % inhibition at 0.3 uM” value in test [1] is recorded as 62(2) %. The IC50 amounted to 17 nM with KB85 (72 h); 150 nM with KBV1 (Homo sapiens, KB-V1, 72 h); 5.2 nM in the test with KB cells (Homo sapiens, KB, 72 h).

Consider `CN[C@H](C(=O)N[C@H](C(=O)N(C)[C@H](/C=C(\C)S(=O)(=O)O)C(C)C)C(C)(C)C)C(C)(C)c1ccccc1` [Example 66, N,β,β-trimethyl-L-phenylalanyl-N^1-[(1S,2E)-1-isopropyl-3-sulfobut-2-enyl] N^1,3-dimethyl-L-valinamide], for which the “Tubulin Polym. % inhibition at 0.3 uM” value in test [1] was 91%. For the same compound, the “KB85 % inhibition @ 3000 nM” value with KB85 (3000 nM) was determined as 0%. Further, the “KBV1 % inhibition @ 3000 nM” value in the test with KBV1 (3000 nM) turned out to be 0%. Moreover, in the test with KB cells (3000 nM), the “KB % inhibition @ 3000 nM” value is recorded as 25%.

`CN[C@H](C(=O)N[C@H](C(=O)N(C)[C@H](/C=C(\C)C(=O)N1C[C@H](O)C[C@H]1C(=O)OC)C(C)C)C(C)(C)C)C(C)(C)c1ccccc1` [Example 40, N,β,β-trimethyl-L-phenylalanyl-N^1-{(1S,2E)-4-[(2S,4R)-2-(methoxycarbonyl)-4-hydroxypyrrolidin-1-yl]-1-isopropyl-3-methyl-4-oxobut-2-enyl}-N^1,3-dimethyl-L-valinamide]: the “Tubulin Polym. % inhibition at 0.5 uM” value in test [1] is 93*** %. Also, the IC50 with KB85 (72 h) turned out to be 116 nM; with KB cells (Homo sapiens, KB, 72 h), 3.5 nM. In the test with KBV1 (Homo sapiens), this compound came in with an inhibition at 3 µM of 4%.

Turning to `CN[C@H](C(=O)N[C@H](C(=O)N(C)[C@H](/C=C(\C)C(=O)N1CCOCC1)C(C)C)C(C)(C)C)C(C)(C)c1ccc(C)c(C)c1` [Example 2, N,β,β,3,4-Pentamethyl-L-phenylalanyl-N^1-[(1S,2E)-1-isopropyl-3-methyl-4-morpholin-4-yl-4-oxobut-2-enyl]-N^1,3-dimethyl-L-valinamide], the “Tubulin Polym. % inhibition at 0.3 uM” value in test [1] stood at 37%. The IC50 turned out to be 62 nM in the test on KB85 (72 h); 162 nM in the test with KBV1 (Homo sapiens, KB-V1, 72 h); 34 nM with KB cells (Homo sapiens, KB, 72 h).

Turning to “3-hydroxy-N-methyl-L-valyl-N^1-[(1S,2E)-4-ethoxy-1-isopropyl-3-methyl-4-oxo-2-butenyl]-N^1,3-dimethyl-L-valinamide and 3-hydroxy-N,N-dimethyl-L-valyl-N^1-[(1S,2E)-4-ethoxy-1-isopropyl-3-methyl-4-oxo-2-butenyl]-N^1,3-dimethyl-L-valinamide [Example 61]”, the “Tubulin Polym. % inhibition at 0.5 uM” value in test [1] is recorded as 40*** %. Moreover, the IC50 in the test with KB85 was 293 nM; in the test on KBV1 it was over 3000 nM; in the test on KB cells, 151 nM.

For the compound `CN[C@H](C(=O)N[C@H](C(=O)N(C)[C@H](/C=C(\C)C(=O)c1ccccc1)C(C)C)C(C)(C)C)C(C)(C)c1ccccc1` [Example 80, N,β,β-trimethyl-L-phenylalanyl-N-1-[(1S,2E)-1-isopropyl-3-methyl-4-oxo-4-phenylbut-2-enyl]-N-1,3-dimethyl-L-valinamide], the “Tubulin Polym. % inhibition at 0.3 uM” value in test [1] was 70%. For the same compound, the IC50 was 1330 nM with KB85, 1800 nM in the test with KBV1 and 725 nM with KB cells.
